Holding throughout (format): functional
For one assay, the system named is SGC-7901. Kind of assay: Growth inhibition of Homo sapiens (human) SGC7901 cells by MTT assay. Background: Formazan colour is commonly taken as a measure of viable cells.
A further assay deals with HL-60. Briefly: Growth inhibition of Homo sapiens (human) HL60 cells by MTT assay.
The subject of a further assay is HT-29. Kind of assay: Growth inhibition of Homo sapiens (human) HT-29 cells by MTT assay.

Regarding `CCCCCCCCCCOc1ccc(-c2coc3cc(OC(F)F)cc(OCCCCCCCCCC)c3c2=O)cc1` [4',5-DI-N-DECOXY-7-GEM-DIFLUOROMETHYLENATED GENISTEIN], the results for the GI in the assay on SGC-7901, in the assay with HL-60 and in the assay on HT-29 were 3.3 µM, 1.63 µM and 14.26 µM, respectively.

Take `CCCCCCCOc1ccc(-c2coc3cc(OC(F)F)cc(OCCCCCCC)c3c2=O)cc1` [4',5-DI-N-HEPTOXY-7-GEM-DIFLUOROMETHYLENATED GENISTEIN]: the GI in the assay with SGC-7901 was found to be 3.39 µM; in the assay on HL-60, 1.41 µM; with HT-29, 5.25 µM.

Take `CCCCCCCCOc1ccc(-c2coc3cc(OC(F)F)cc(OCCCCCCCC)c3c2=O)cc1` [4',5-DI-N-OCTOXY-7-GEM-DIFLUOROMETHYLENATED GENISTEIN]: the GI is 1.64 µM in the assay on SGC-7901, 0.47 µM in the assay with HL-60 and 1.86 µM in the assay with HT-29.

Turning to `CCCOc1ccc(-c2coc3cc(OC(F)F)cc(OCCC)c3c2=O)cc1` [4',5-DI-N-PROPOXY-7-GEM-DIFLUOROMETHYLENATED GENISTEIN], the GI with SGC-7901 came to 2.15 µM; in the assay with HL-60 it was 0.54 µM; in the assay with HT-29, 2.5 µM.

For the compound `O=c1c(-c2ccc(OCc3ccccc3)cc2)coc2cc(OC(F)F)cc(OCc3ccccc3)c12` [4',5-DIBENZYLOXY-7-GEM-DIFLUOROMETHYLENATED GENISTEIN], the GI is 4.24 µM in the assay with SGC-7901, 1.29 µM in the assay with HL-60 and 2.82 µM with HT-29.

For `CCOc1ccc(-c2coc3cc(OC(F)F)cc(OCC)c3c2=O)cc1` [4',5-DIETHOXY-7-GEM-DIFLUOROMETHYLENATED GENISTEIN], the GI in the assay with SGC-7901 is 5.51 µM; in the assay with HL-60 it was 1.75 µM; in the assay on HT-29 it was 11.2 µM.

Regarding `COc1ccc(-c2coc3cc(OC(F)F)cc(OC)c3c2=O)cc1` [4',5-DIMETHOXY-7-GEM-DIFLUOROMETHYLENATED GENISTEIN], the GI came out at 6.41 µM with SGC-7901, 4.61 µM in the assay with HL-60 and 9.83 µM in the assay on HT-29.

Turning to `O=c1c(-c2ccc(OC(F)F)cc2)coc2cc(OC(F)F)cc(O)c12` [4',7-DI-GEM-DIFLUOROMETHYLENATED GENISTEIN], the GI amounted to 5.54 µM in the assay on SGC-7901, 5.5 µM with HL-60 and 5.35 µM with HT-29.

On to `CC(=O)Oc1ccc(-c2coc3cc(OC(C)=O)cc(O)c3c2=O)cc1` [4',7-DIACETOXY-5-HYDROXYGENISTEIN], for which the GI in the assay on SGC-7901 amounted to 11.24 µM; in the assay with HL-60, 5.86 µM; with HT-29 it was 19.4 µM.

In the case of `C=CCOc1ccc(-c2coc3cc(OCC=C)cc(O)c3c2=O)cc1` [4',7-DIALLYLOXY-5-HYDROXYGENISTEIN], the GI with SGC-7901 amounted to 6.51 µM; in the assay on HL-60, 3.44 µM; in the assay with HT-29, 14.2 µM.

Consider `CCCCCCCCCCOc1ccc(-c2coc3cc(OCCCCCCCCCC)cc(O)c3c2=O)cc1` [4',7-DIDECYLOXY-5-HYDROXYGENISTEIN], for which the GI amounted to 4.27 µM with SGC-7901, 3.09 µM in the assay with HL-60 and 11.6 µM with HT-29.

As for `COc1ccc(-c2coc3cc(OC)cc(O)c3c2=O)cc1` [4',7-DIMETHOXY-5-HYDROXYGENISTEIN], the GI with SGC-7901 came to 7.78 µM; in the assay on HL-60, 5.14 µM; in the assay on HT-29 it was 4.18 µM.

In the case of `CCCCCCCCOc1ccc(-c2coc3cc(OCCCCCCCC)cc(O)c3c2=O)cc1` [4',7-DIOCTYLOXY-5-HYDROXYGENISTEIN], the figures for the GI in the assay with SGC-7901, with HL-60 and in the assay on HT-29 were 4.82 µM, 1.62 µM and 10.8 µM, respectively.

Consider `CC(=O)Oc1cc(O)c2c(=O)c(-c3ccc(O)cc3)coc2c1` [7-ACETOXY-4',5-DIHYDROXYGENISTEIN], for which the figures for the GI in the assay with SGC-7901, with HL-60 and with HT-29 were 8.11 µM, 4.95 µM and 4.21 µM, respectively.

As to `O=c1c(-c2ccc(O)cc2)coc2cc(OC(F)F)cc(O)c12` [7-GEM-DIFLUOROMETHYLENATED GENISTEIN], the figures for the GI with SGC-7901, with HL-60 and in the assay on HT-29 were 4.59 µM, 3.53 µM and 4.56 µM, respectively.

On to `O=c1c(-c2ccc(O)cc2)coc2cc(O)cc(O)c12` [GENISTEIN], for which the GI worked out at 5.78 µM in the assay on SGC-7901, 4.82 µM with HL-60 and 4.11 µM in the assay with HT-29.

As for `COc1cc(O)c2c(=O)c(-c3ccc(O)cc3)coc2c1` [PRUNETIN], the GI with SGC-7901 was found to be 3.94 µM; in the assay with HL-60 it was 4.35 µM; with HT-29, 5.11 µM.

(Values after ChEMBL document CHEMBL3045088, “Synthesis and cytotoxic activity of genistein derivatives” (2010).)
